The source of these data is patent publication EP0048159A2, “Novel carboxyalkyl peptides and thioethers and ethers of peptides as antihypertensive agents” (UNIVERSITY OF MIAMI, priority 1980, dated 1982).

One data set concerns the target T1, Human plasma ACE (Homo sapiens, UniProt P12821).
T1 construct: Human plasma ACE was assayed in 0.05 M Hepes buffer, pH 8.0; from tissue; host or cells: human plasma
The data set is described as follows: Inhibitory potency in vitro: ACE assay with [3H]hippuryl-His-Leu substrate. The format is biochemical. The conditions noted are these: hippuryl-His-Leu 1 x 10^-4 M, 0.05 M Hepes buffer pH 8.0, 15 minutes at 37°C, read-out: I50. How it is done: The inhibitory potency of several compounds in vitro was measured in the following assay. Human plasma ACE was assayed in 0.05 M Hepes buffer, pH 8.0 containing 0.1 M NaCl and 0.75 M Na2SO4. The substrate employed was hippuryl-His-Leu at a final concentration-of 1 x 10^-4 M, (Km = 2 x 10^-4 M), together with about 130,000 cpm/50 µl of [^3Hlhippuryl-His-Leu (25 Ci/mmole). Enzyme was diluted in the above buffer such that 40 ul of buffered enzyme was capable of hydrolyzing 13% of substrate in a 15 minute incubation at 37°C. To initiate the assay, 40 µl of enzyme and 10 µl of buffer or inhibitor dissolved in buffer were preincubated for two minutes at 37°C. Substrate, 50 µl, was then added to initiate reaction and the solution was incubated for 15 minutes at 37°C. To terminate the reaction, 1 ml of 0:1 M HC1 was added, following which 1 ml of ethyl acetate was added. The mixture was
An aliquot, 500 ul. of the ethyl acetate layer was transferred to a liquid scintillation vial containing 10 ml of Riafluor, trademark New England Nuclear Corporation, Boston, Massachusetts. For determination of I50 values, enzyme activity in the presence of inhibitor at a series of different concentrations was compared to activity in the absence of inhibitor. A plot of log inhibitor concentration versus percent inhibition yielded the I50 value; the concentration of inhibitor required to reduce enzymic activity by 50%.

A further data set relates to Rats. The data set is described as follows: Intravenous effectiveness: blood pressure response to angiotensin I in anesthetized rats. In kind it is in vivo. The conditions noted are these: 20 µmole/kg intravenously. How it is done: Rats (190-290 g body weight) were fasted overnight and then anesthetized with intraperitoneal pentobarbital, 50-60 mg/kg. Tracheostomy was performed and the animals were ventilated mechanically. A cannula was inserted into a femoral vein for injection of angiotensin I, and a second cannula was inserted into a common carotid artery for direct measurement of arterial blood pressure. Heparin, 1,000 units, was injected via the femoral vein to prevent coagulation. Blood pressure was measured with a pressure transducer connected to a polygraph. The rats were injected with […] of angiotensin I in 20 pl of 0.9 g % NaCl; an amount of angiotensin I sufficient to raise mean arterial blood pressure by approximately 40 mm Hg. After the responsiveness of a given rat to angiotensin I was established, the named compound at 20 µmole/kg (drug dissolved in 0.15 ml of H20 plus 10 µl of 1 N NaHC03), was given intravenously. At timed intervals, the effects of 400 ng/kg of angiotensin I on mean arterial blood pressure were tested.

Data set [1] in a line: Loss of activity of aqueous solution on standing under ambient conditions. In kind it is physicochemical. The conditions noted are these: fresh aqueous solution, 1 mg per ml, pH of about 8, standing for as little as 30 minutes. From the text: In vitro study of the mechanism by which SQ14225 and its analogs act to inhibit ACE has been somewhat hampered by the instability of these molecules under ambient conditions.

T1 sequence (P12821 30-1232 limits assumed): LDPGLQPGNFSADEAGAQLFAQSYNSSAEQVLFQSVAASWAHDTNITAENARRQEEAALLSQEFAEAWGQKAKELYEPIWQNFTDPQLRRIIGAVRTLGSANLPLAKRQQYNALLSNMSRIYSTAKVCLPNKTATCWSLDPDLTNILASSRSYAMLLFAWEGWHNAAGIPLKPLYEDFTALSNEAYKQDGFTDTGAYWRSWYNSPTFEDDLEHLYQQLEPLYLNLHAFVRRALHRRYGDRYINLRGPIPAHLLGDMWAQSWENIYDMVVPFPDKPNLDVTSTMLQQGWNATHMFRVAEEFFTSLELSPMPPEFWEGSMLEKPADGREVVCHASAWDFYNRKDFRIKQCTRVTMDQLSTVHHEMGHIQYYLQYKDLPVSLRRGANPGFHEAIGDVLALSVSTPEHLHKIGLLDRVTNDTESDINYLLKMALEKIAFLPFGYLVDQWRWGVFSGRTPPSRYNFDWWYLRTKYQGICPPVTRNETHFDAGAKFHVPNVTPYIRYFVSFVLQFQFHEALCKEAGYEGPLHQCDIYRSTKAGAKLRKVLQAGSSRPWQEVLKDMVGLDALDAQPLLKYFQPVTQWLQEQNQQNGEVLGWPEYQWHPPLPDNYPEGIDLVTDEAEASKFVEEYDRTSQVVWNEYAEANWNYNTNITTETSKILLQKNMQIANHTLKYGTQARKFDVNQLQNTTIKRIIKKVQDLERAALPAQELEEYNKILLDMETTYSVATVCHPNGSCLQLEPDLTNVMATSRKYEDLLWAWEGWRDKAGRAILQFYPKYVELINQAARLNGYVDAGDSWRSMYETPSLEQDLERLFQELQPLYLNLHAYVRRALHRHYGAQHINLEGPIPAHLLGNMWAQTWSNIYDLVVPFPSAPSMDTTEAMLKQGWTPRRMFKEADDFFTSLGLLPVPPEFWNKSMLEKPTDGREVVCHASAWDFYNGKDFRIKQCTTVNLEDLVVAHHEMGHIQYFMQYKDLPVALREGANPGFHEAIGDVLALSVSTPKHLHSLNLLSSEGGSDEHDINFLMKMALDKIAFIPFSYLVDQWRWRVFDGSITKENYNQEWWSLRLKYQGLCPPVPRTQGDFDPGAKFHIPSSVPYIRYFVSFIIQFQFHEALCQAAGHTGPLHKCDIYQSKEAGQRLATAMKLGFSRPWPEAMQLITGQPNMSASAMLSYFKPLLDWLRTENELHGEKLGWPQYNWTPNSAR

With `CC(N[C@@H](C)C(=O)N1CCC[C@H]1C(=O)O)C(=O)O` (stereo partly drawn) [N-(1-carboxyethyl)-L-alanyl-L-proline, reference compound], the IC50 at Human plasma ACE came to 8 nM. On the same count and under the same terms, as for `CCOC(=O)C(C)N[C@@H](C)C(=O)N1CCC[C@H]1C(=O)O` (stereo partly drawn) [N-(1-ethoxycarbonylethyl)-L-alanyl-L-proline], the figure is 60 nM. Turning to `CC(O)CC(SC(C)C(=O)N1CCC[C@H]1C(=O)O)C(=O)O` (stereo partly drawn) [N-[2-(1-carboxy-3-hydroxy-butylthio)-propanoyl]-L-proline], the IC50 at Human plasma ACE stood at 30 nM. The same measure, in the same setting: next, `CC(SC(C)C(=O)N1CCC[C@H]1C(=O)O)C(=O)O` (stereo partly drawn) [N-[2-(1-carboxyethylthio)-propanoyl]-L-proline]: 400 nM; `CC1CC(SC(C)C(=O)N2CCC[C@H]2C(=O)O)C(=O)O1` (stereo partly drawn) [N-[2-(tetrahydro-5-methyl-2-furanone-3-thio)-propanoyl]-L-proline]: 130 nM.

Take `CC(SC[C@@H](C)C(=O)N1CCC[C@H]1C(=O)O)C(=O)O` (stereo partly drawn) [N-[3-(1-carboxyethylthio)-2-D-methylpropanoyl]-L-proline]: the “Blood Pressure Reponse to 400 ng/kg of Angiotensin I (% of Control)” value is 62.5 % of Control in the data set with Rats (8 minutes after IV administration), 37.5 % of Control in the data set with Rats (15 minutes after IV administration), 37.5 % of Control in the data set with Rats (21 minutes after IV administration) and 67.5 % of Control in the data set with Rats (+2 minutes after IV administration). Further, on Human plasma ACE, the IC50 worked out at 1500 nM.

In the case of `C[C@H](CS)C(=O)N1CCC[C@H]1C(=O)O` [SQ14225], in data set [1], the “activity of aqueous solution upon standing” value is recorded as “substantially less active”.
